Measurements taken from BindingDB's records for PubMed 20126400 (University of Oklahoma, 2010).

Key:
Assay in all cases: Ray2010 Assay 74
[1] = molecular target: D(1B) dopamine receptor (Homo sapiens, UniProt P21918)
Text: (§1) Table S2 shows raw Ki data for the current study combined with data collected from the literature for the ten additional compounds.

[2] = molecular target: Beta-2 adrenergic receptor (Homo sapiens, UniProt P07550)
Text: as §1

[3] = molecular target: Cannabinoid receptor 2 (Homo sapiens, UniProt P34972)
Cannabinoid receptor 2, sequence (P34972 whole entry): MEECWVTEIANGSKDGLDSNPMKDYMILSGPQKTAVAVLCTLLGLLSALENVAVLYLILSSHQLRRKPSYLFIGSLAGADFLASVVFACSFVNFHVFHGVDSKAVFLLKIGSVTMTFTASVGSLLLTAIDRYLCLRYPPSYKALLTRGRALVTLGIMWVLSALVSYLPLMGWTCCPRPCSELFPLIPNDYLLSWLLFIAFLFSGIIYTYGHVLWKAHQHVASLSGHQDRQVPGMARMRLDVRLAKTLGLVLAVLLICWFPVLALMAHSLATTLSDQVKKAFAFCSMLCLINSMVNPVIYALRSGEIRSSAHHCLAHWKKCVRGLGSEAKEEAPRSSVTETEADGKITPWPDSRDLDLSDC
Text: as §1

[4] = molecular target: D(1A) dopamine receptor (Homo sapiens, UniProt P21728)
Text: as §1

[5] = molecular target: Histamine H3 receptor (Homo sapiens, UniProt Q9Y5N1)
Text: as §1

[6] = molecular target: 5-hydroxytryptamine receptor 1B (Homo sapiens, UniProt P28222)
5-hydroxytryptamine receptor 1B, sequence (P28222 whole entry): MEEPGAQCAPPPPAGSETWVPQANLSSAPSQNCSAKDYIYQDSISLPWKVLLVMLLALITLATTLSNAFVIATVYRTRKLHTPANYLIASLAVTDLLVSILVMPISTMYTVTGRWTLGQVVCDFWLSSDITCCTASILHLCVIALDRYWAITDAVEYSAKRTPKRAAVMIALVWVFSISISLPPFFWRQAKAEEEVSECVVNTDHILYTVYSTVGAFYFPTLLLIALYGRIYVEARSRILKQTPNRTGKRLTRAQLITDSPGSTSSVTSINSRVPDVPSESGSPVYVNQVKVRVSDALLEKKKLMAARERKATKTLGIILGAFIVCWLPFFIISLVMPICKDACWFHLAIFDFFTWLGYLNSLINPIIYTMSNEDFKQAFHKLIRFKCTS
Text: as §1

[7] = molecular target: T1, Gamma-aminobutyric acid receptor subunit alpha-1/Adenosine receptor A1 (Homo sapiens, UniProt P14867+P30542)
T1 sequence (P30542 whole entry): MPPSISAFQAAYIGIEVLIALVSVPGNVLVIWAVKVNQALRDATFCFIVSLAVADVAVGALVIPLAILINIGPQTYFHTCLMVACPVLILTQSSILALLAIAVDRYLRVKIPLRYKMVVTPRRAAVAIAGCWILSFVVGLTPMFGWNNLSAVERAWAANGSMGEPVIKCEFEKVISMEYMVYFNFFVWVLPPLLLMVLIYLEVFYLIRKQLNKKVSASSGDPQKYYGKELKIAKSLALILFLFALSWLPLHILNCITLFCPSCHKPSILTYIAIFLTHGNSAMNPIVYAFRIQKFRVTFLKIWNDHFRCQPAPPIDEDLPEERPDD
T1 sequence (P14867 whole entry): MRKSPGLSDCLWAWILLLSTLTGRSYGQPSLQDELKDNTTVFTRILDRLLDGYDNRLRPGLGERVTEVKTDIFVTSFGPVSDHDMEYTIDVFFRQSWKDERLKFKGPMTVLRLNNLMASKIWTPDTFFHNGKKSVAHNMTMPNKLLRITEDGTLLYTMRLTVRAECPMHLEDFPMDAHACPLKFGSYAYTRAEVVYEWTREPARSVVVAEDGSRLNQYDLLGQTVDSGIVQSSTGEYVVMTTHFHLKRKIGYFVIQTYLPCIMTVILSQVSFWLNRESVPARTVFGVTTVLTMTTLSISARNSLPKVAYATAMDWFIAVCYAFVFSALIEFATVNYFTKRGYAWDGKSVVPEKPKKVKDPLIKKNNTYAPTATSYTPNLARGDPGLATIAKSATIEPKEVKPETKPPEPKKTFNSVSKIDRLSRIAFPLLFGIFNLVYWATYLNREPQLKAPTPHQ
Text: as §1

[8] = molecular target: 5-hydroxytryptamine receptor 2B (Homo sapiens, UniProt P41595)
5-hydroxytryptamine receptor 2B, sequence (P41595 whole entry): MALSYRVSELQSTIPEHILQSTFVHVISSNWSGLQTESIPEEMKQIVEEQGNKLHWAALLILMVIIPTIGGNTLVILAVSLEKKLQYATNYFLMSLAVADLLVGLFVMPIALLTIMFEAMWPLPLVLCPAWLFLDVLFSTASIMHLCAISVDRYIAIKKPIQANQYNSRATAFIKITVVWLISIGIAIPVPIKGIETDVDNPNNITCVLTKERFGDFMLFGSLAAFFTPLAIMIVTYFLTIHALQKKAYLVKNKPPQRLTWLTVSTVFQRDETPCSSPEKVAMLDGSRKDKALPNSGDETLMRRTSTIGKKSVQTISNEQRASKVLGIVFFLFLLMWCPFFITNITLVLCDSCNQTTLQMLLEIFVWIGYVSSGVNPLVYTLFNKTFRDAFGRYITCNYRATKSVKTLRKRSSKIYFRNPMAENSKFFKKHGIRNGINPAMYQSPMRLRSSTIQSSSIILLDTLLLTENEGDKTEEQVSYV
Text: as §1

[9] = molecular target: Sodium-dependent dopamine transporter (Homo sapiens, UniProt Q01959)
Sodium-dependent dopamine transporter, sequence (Q01959 whole entry): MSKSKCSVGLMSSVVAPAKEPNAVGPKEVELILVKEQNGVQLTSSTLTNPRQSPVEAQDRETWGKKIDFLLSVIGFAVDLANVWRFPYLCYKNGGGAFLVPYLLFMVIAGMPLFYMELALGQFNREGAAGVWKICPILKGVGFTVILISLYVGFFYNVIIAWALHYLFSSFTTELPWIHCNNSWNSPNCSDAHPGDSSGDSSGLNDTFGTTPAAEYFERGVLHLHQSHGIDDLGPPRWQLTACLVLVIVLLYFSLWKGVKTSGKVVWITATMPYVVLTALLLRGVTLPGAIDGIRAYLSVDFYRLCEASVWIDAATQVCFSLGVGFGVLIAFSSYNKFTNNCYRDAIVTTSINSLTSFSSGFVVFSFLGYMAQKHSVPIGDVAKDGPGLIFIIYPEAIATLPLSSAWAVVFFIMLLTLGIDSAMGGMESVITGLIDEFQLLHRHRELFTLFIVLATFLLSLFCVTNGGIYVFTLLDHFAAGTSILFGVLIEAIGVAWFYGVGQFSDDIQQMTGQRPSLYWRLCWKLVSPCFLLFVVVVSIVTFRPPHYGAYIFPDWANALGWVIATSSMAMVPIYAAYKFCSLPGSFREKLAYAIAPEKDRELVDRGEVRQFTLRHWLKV
Text: as §1

[10] = molecular target: Nischarin (Homo sapiens, UniProt Q9Y2I1)
Nischarin, sequence (Q9Y2I1 whole entry): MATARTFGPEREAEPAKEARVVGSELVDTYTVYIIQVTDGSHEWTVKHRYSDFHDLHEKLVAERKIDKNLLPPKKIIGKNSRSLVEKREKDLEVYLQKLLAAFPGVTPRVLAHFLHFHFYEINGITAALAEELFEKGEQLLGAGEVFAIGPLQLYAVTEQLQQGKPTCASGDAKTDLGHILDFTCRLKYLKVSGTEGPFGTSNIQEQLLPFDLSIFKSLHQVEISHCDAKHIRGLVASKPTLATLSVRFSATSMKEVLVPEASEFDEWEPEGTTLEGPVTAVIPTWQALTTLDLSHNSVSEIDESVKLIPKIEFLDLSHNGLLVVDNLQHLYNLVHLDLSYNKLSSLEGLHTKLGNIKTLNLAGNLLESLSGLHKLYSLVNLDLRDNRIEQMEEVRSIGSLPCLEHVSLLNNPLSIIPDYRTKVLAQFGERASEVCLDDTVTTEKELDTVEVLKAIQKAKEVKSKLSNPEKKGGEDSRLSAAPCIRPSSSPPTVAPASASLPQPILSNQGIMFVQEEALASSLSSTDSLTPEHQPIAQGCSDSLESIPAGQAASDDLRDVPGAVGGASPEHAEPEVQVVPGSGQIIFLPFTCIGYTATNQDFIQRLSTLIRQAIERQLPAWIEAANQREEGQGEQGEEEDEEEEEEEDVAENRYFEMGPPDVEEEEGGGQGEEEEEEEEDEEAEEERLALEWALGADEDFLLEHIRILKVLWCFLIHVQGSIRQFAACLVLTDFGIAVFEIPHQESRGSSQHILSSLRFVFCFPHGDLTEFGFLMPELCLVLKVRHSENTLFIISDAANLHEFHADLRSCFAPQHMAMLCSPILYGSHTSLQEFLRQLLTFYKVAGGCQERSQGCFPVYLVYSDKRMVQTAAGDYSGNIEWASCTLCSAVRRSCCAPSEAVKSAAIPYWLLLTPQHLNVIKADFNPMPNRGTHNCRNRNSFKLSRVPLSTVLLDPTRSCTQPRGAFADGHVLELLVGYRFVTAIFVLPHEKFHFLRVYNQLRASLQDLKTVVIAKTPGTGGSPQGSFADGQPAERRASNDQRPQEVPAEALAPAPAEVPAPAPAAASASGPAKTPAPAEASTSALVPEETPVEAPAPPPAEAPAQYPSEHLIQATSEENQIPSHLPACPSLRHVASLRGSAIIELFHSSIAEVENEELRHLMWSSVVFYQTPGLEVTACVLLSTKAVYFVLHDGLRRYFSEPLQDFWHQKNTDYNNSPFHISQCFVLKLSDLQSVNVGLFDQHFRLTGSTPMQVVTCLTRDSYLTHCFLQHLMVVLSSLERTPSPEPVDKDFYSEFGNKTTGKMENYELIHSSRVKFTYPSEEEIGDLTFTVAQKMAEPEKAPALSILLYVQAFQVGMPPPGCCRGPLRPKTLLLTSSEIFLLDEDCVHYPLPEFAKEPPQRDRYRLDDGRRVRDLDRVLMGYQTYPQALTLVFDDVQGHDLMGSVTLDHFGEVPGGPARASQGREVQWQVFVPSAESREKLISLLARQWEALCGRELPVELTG
Text: as §1

[11] = molecular target: Kappa-type opioid receptor (Homo sapiens, UniProt P41145)
Kappa-type opioid receptor, sequence (P41145 whole entry): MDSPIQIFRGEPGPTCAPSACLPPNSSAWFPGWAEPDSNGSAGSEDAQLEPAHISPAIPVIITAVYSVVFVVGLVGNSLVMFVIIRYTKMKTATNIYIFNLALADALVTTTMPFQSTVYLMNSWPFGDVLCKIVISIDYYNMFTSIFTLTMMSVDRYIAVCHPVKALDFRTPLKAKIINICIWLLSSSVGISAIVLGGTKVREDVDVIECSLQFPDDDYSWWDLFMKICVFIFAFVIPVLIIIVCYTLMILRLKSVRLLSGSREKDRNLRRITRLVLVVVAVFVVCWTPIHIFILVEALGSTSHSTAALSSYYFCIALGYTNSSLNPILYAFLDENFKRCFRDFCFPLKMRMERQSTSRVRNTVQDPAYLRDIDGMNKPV
Text: as §1

[12] = molecular target: Sigma non-opioid intracellular receptor 1 (Homo sapiens, UniProt Q99720)
Text: as §1

[13] = molecular target: Delta-type opioid receptor (Homo sapiens, UniProt P41143)
Text: as §1

[14] = molecular target: Sigma intracellular receptor 2 (Homo sapiens, UniProt Q5BJF2)
Sigma intracellular receptor 2, sequence (Q5BJF2 whole entry): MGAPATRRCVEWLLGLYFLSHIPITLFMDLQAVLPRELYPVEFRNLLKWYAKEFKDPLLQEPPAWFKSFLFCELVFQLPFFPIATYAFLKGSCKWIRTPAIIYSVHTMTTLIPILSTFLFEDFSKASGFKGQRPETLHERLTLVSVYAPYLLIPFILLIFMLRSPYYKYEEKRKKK
Text: as §1

[15] = molecular target: Mu-type opioid receptor (Homo sapiens, UniProt P35372)
Text: as §1

[16] = molecular target: Muscarinic acetylcholine receptor M3 (Homo sapiens, UniProt P20309)
Text: as §1

[17] = molecular target: Voltage-dependent calcium channel subunit alpha-2/delta-1 (Homo sapiens, UniProt P54289)
Text: as §1

[18] = molecular target: Vasopressin V1a receptor (Homo sapiens, UniProt P37288)
Vasopressin V1a receptor, sequence (P37288 whole entry): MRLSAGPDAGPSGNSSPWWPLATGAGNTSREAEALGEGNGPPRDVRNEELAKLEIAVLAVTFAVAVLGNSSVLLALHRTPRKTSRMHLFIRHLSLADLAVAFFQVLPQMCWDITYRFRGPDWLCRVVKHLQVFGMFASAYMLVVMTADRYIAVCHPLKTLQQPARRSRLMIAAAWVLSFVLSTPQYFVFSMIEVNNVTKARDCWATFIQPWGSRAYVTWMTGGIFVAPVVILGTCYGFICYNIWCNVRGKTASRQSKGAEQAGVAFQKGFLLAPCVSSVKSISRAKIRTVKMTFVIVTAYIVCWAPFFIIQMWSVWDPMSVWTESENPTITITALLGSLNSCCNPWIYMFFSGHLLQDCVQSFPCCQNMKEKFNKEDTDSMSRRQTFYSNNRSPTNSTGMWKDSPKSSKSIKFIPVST
Text: as §1

[19] = molecular target: T2, Vasopressin V1b receptor (Homo sapiens, UniProt P47901)
T2 sequence (P47901 whole entry): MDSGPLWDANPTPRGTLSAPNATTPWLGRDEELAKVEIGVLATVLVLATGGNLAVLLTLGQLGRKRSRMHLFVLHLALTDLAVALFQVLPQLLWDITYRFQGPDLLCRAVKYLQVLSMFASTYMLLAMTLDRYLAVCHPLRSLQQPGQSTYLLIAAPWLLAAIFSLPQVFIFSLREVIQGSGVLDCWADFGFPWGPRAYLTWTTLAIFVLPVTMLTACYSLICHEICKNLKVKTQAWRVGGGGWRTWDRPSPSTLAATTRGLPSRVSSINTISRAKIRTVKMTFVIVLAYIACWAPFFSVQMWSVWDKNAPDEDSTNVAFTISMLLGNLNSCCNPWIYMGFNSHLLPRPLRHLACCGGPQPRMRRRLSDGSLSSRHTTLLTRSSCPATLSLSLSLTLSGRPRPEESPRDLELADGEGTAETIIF
Text: as §1

D(1B) dopamine receptor, sequence (P21918 whole entry): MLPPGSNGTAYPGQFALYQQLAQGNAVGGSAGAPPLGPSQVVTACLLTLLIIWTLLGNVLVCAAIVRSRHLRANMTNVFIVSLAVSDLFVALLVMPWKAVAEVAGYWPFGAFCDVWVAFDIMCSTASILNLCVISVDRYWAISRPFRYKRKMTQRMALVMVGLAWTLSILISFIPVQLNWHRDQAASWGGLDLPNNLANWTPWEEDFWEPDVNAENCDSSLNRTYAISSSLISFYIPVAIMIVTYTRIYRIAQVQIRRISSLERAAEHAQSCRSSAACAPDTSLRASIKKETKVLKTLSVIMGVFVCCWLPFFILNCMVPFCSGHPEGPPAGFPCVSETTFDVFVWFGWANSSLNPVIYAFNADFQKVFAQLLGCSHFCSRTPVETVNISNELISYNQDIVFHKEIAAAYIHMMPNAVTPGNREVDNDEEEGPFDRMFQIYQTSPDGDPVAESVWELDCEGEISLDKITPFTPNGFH

Row | Compound | Ki [1] [µM] | Ki [2] [µM] | Ki [3] [µM] | Ki [4] [µM] | Ki [5] [µM] | Ki [6] [µM] | Ki [7] [µM] | Ki [8] [µM] | Ki [9] [µM] | Ki [10] [µM] | Ki [11] [µM] | Ki [12] [µM] | Ki [13] [µM] | Ki [14] [µM] | Ki [15] [µM] | Ki [16] [µM] | Ki [17] [µM] | Ki [18] [µM] | Ki [19] [µM]
1 | CC(N)Cc1ccc2c(c1)OCO2 (stereo unspecified) | > 10 | > 10 | > 10 | > 10 | > 10 | > 10 | > 10 | 0.091 | > 10 | > 10 | > 10 |  |  |  |  |  |  |  | 
2 | COc1cc(CC(C)N)cc(OC)c1OC (stereo unspecified) | > 10 | > 10 | > 10 | > 10 | > 10 | 2.86 |  | 0.477 | > 10 | > 10 | > 10 | 0.536 | > 10 | 0.536 | > 10 |  |  |  | 
3 | CC[C@H]1C[C@@H]2C[C@H]3c4[nH]c5ccc(OC)cc5c4CCN(C2)[C@@H]13 |  |  |  | > 10 |  | > 10 |  |  | 1.98 |  |  | 5.84 | > 10 | 0.206 | 4.36 | 12.5 |  |  | 
4 | CCc1cc(OC)c(CC(C)N)cc1OC (stereo unspecified) | > 10 |  | > 10 | > 10 | > 10 | 2.8 |  | 0.0288 | > 10 | > 10 | > 10 | 9.78 | > 10 | 9.56 | > 10 |  |  |  | 
5 | CN(C)CCc1c[nH]c2ccccc12 [2-(1H-indol-3-yl)-N,N-dimethylethanamine] | > 10 | > 10 | > 10 |  | > 10 | > 10 | > 10 |  | > 10 | 0.65 | > 10 | 5.21 |  | > 10 |  | > 10 | > 10 |  | 
6 | NCCc1c2c(c(Br)c3c1OCC3)OCC2 [2-(8-Bromo-2,3,6,7-tetrahydro-benzo[1,2-b;4,5-b']difuran-4-yl)-ethylamine] | > 10 | > 10 | 8.97 | 4.96 | > 10 | 0.185 |  | 0.0009 | > 10 | > 10 | > 10 | > 10 | > 10 | > 10 | > 10 | 0.339 |  |  | 
7 | CCc1[nH]c2ccc(OC)cc2c1CCN(C)C [2-ethyl-5-methoxy-N,N-dimethyltryptamine] |  |  |  |  | > 10 | > 10 |  |  | > 10 |  | > 10 |  | > 10 |  | > 10 | > 10 |  | > 10 | > 10
8 | COC(=O)[C@@H]1C[C@H](OC(C)=O)C(=O)[C@H]2[C@@]1(C)CC[C@H]1C(=O)O[C@H](c3ccoc3)C[C@]21C [2S,4aR,6a(R,7R,9S,10aS,10bR)-9-(acetyloxy)-2-(furan-3-yl)dodecahydro-6a,10b-dimethyl-4,10-dioxo-2H-naphtho[2,1-c]pyran-7-carboxylic acid methyl ester] | > 10 | > 10 |  | > 10 |  | > 10 |  | > 10 | > 10 |  |  |  |  |  |  | > 10 |  |  | 
9 | COc1ccc2[nH]cc(CCN(C)C)c2c1 [3-(2-DIMETHYLAMINOETHYL)-5-METHOXYINDOLE] | > 10 | > 10 | > 10 | 0.0795 |  |  | > 10 |  | > 10 | 2.5 | > 10 | > 10 |  | > 10 |  | > 10 | > 10 |  | 
10 | CN(C)CCc1c[nH]c2cccc(O)c12 [4-hydroxy-N,N-dimethyltryptamine] | > 10 | > 10 | > 10 |  | > 10 |  | > 10 |  | > 10 | 0.792 | > 10 | > 10 | > 10 | > 10 | > 10 | > 10 | > 10 |  | 
11 | COc1cc(OC)c(OC)cc1CC(C)N (stereo not drawn) [(+/-)1-Methyl-2-(2,4,5-trimethoxy-phenyl)-ethylamine] | > 10 | > 10 |  | > 10 | > 10 | > 10 |  | 0.154 | > 10 |  |  |  |  |  |  |  |  |  | 
12 | COc1cc(CC(C)N)c(OC)cc1C (stereo not drawn) [(+/-)2-(2,5-Dimethoxy-4-methyl-phenyl)-1-methyl-ethylamine] | > 10 |  | > 10 | > 10 | > 10 | > 10 |  | 0.0117 | > 10 | > 10 | > 10 | > 10 | > 10 | > 10 | > 10 |  |  |  | 
13 | COc1ccc2[nH]c(C)c(CCN(C)C)c2c1 [[2-(5-Methoxy-2-methyl-1H-indol-3-yl)-ethyl]-dimethyl-amine (C2H2O)] |  |  |  |  | > 10 | > 10 |  |  | > 10 |  | > 10 |  | > 10 |  | > 10 | > 10 |  | > 10 | > 10
14 | CCN(CC)C(=O)[C@@H]1C=C2c3cccc4[nH]cc(c34)C[C@H]2N(C)C1 [[N-methyl-3H]LSD] |  |  |  | 0.177 |  | 0.0039 |  |  | > 10 |  | > 10 |  | > 10 |  | > 10 |  |  | > 10 | > 10
15 | C[C@@H]1C[C@H](C)N1C(=O)C1C=C2c3cccc4[nH]cc(c34)C[C@H]2N(C)C1 (stereo partly drawn) [cis-2a] |  |  |  | 0.232 |  | 0.0037 |  | 0.044 | > 10 |  | > 10 |  | > 10 |  | > 10 |  |  | > 10 | > 10
16 | C[C@@H]1C[C@@H](C)N1C(=O)C1C=C2c3cccc4[nH]cc(c34)C[C@H]2N(C)C1 (stereo partly specified) [rr-2b] |  |  |  | 0.342 |  | 0.002 |  | 0.312 | > 10 |  | > 10 |  | > 10 |  | > 10 |  |  | > 10 | > 10
17 | CAS_82830-44-2::(2R)-1-(4-iodo-2,5-dimethoxyphenyl)propan-2-amine::DOI,(-)::US20250270173, Compound DOI | > 10 | 0.139 | > 10 | 9.69 | > 10 | > 10 |  | 0.336 | > 10 | > 10 | > 10 | 8.56 | > 10 | 9.17 | > 10 | 1.43 |  |  | 
